These results are taken from publication PMC10683028 (Journal of Medicinal Chemistry, 2023).

For data set [1] the following is noted: pH 7.4.
Procedure: Test compounds were prepared as 0.5 mM solutions in 50:50 acetonitrile:water and analyzed by reversed-phase HPLC-UV (wavelength 254 nm) using a Phenomenex Luna C18 100 Å 150 × 4.6 mm 5 μm column with a gradient of aqueous phase (50 mM ammonium acetate, pH 7.4) and mobile phase (acetonitrile) as described.[41],[42]
Data set [2] is described as follows: physchem. Particulars: aqueous medium at pH 7.4, pH 7.4.
Procedure: (§1) In vitro ADME experiments were performed exactly as reported.[38]−[40]
Data set [3] in a line: in vitro. Particulars: PAMPA, pH 7.4. (The PAMPA barrier holds no transporters, so it reflects passive diffusion.)
Procedure: as §1
The conditions of data set [4]: mouse, PO 10 mg/kg.
Procedure: Murine pharmacokinetic studies were performed exactly as reported.[40]

Each structure is given as a SMILES string. In brackets after ≈: the same amount, converted by molar mass.

In general, solubility refers to the dissolved amount per volume that the medium holds. A low value points to a poorly soluble substance. Usually Papp stands for a coefficient for how fast a substance crosses the barrier. Low readings indicate slow passage, high ones fast passage. `COc1ccc(-c2noc(C(=O)NCCc3ccc(C(=O)N4CC5(COC5)C4)cc3)n2)cc1OC` [compound 18, N-(4-(2-Oxa-6-azaspiro[3.3]heptane-6-carbonyl)phenethyl)-3-(3,4-dimethoxyphenyl)-1,2,4-oxadiazole-5-carboxamide] came in with a CHI-logDpH7.4 in data set [1] of 1.8. This molecule also displayed a solubility in data set [2] of 12 µM (≈ 5.74 µg/mL). The Papp in data set [3] is 2.6 ×10⁻⁶ cm/s.
Taken in the same sequence, the figures for `COc1ccc(-c2noc(C(=O)NC(C#N)Cc3ccc(C(=O)N4CC(OC)C4)cc3)n2)cc1OC` (stereo not shown) [compound 34, N-(1-Cyano-2-(4-(3-methoxyazetidine-1-carbonyl)phenyl)ethyl)-3-(3,4-dimethoxyphenyl)-1,2,4-oxadiazole-5-carboxamide] were 2.2, 164 µM (≈ 80.6 µg/mL) and 1.5 ×10⁻⁶ cm/s.
As a reminder, the Cmax is the peak of the concentration-time curve. A word on the Tmax: it is the time from dosing to the highest level. With `COc1ccc(-c2noc(C(=O)NC(C#N)Cc3ccc(C(=O)N4CC5(COC5)C4)cc3)n2)cc1OC` (stereo not shown) [compound 44, N-(2-(4-(2-Oxa-6-azaspiro[3.3]heptane-6-carbonyl)phenyl)-1-cyanoethyl)-3-(3,4-dimethoxyphenyl)-1,2,4-oxadiazole-5-carboxamide], the CHI-logDpH7.4 in data set [1] is given as 2.1. Also, in data set [4], the “AUC0–480” value came to 5 µg·min/mL, the Cmax was 56 ng/mL and the Tmax came to 5 h. The same molecule showed an apparent permeability coefficient (Papp) in data set [3] of 0.6 ×10⁻⁶ cm/s.
Molecule `COc1ccc(-c2noc(C(=O)NC(C#N)Cc3ccc(C(=O)N4CC(OC)C4)cc3)n2)cc1OCC1(O)CC1` (stereo not shown) [compound 45, N-[1-Cyano-2-[4-(3-methoxyazetidine-1-carbonyl)phenyl]ethyl]-3-[3-[(1-hydroxycyclopropyl)methoxy]-4-methoxyphenyl]-1,2,4-oxadiazole-5-carboxamide] showed a solubility in data set [2] of 152 µM (≈ 83.2 µg/mL).
With `COc1ccc(-c2noc(C(=O)NCCc3ccc(C(=O)N4CC(OC)C4)cc3)n2)cc1OCC1CC1` [compound 77, 3-[3-(Cyclopropylmethoxy)-4-methoxyphenyl]-N-[2-[4-(3-methoxyazetidine-1-carbonyl)phenyl]ethyl]-1,2,4-oxadiazole-5-carboxamide], the CHI-logDpH7.4 in data set [1] was found to be 2.9. Moreover, the concentration in solution in data set [2] (solubility) came to 2 µM (≈ 1.01 µg/mL). The same molecule returned a Papp in data set [3] of 3.6 ×10⁻⁶ cm/s.
In the same order, the values of `COc1ccc(-c2nnc(C(=O)NCCc3ccc(C(=O)N4CC(OC)C4)cc3)o2)cc1OC` [compound 104, 5-(3,4-Dimethoxyphenyl)-N-(4-(3-methoxyazetidine-1-carbonyl)phenethyl)-1,3,4-oxadiazole-2-carboxamide] are 1.7, 11 µM (≈ 5.13 µg/mL) and 0.8 ×10⁻⁶ cm/s.
With `COc1ccc(-c2noc(C(=O)NCCc3ccccc3)n2)cc1OC` [compound 106], the concentration in solution in data set [2] (solubility) was 51 µM (≈ 18 µg/mL).
